This is an account of results in PubChem BioAssay (NCI).

Some test systems named below: MCF7 breast; BT-549 breast; MDA-MB-435; HS 578T breast; PC-3 prostate; NCI/ADR-RES ovarian.
What all share (assay): NCI anticancer screen, dose series, 48 h

Several values for one entry are separate records, joined by “and”; a condition that tells them apart may be missing. Equal entries are not always repeated.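 In this assay, cells in 96-well plates receive the compound at five concentrations for 48 hours. Endpoints are linearly interpolated between the surrounding concentrations. The concentration for 50% growth inhibition is given as GI50. TGI: concentration producing complete growth inhibition.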

With `CN(C)c1ccc2nc3ccc(=[N+](C)C)cc-3sc2c1`, the GI50 in the experiment with MCF7 breast was 0.304 µM and 0.324 µM; in the experiment on BT-549 breast, 9.74 µM and 3.26 µM; in the experiment with MDA-MB-435 it was 0.976 µM and 1.46 µM; in the experiment on HS 578T breast it was 3.08 µM and 3.62 µM; with PC-3 prostate, 0.161 µM and 0.288 µM; in the experiment with NCI/ADR-RES ovarian, 0.408 µM and 0.563 µM. Further, the TGI with MCF7 breast is 12.2 µM and 14.5 µM; in the experiment with BT-549 breast it was 24.2 µM and 22.7 µM; in the experiment on MDA-MB-435, 3.26 µM and 4.02 µM; with HS 578T breast it was > 28.2 µM and 35.6 µM; with PC-3 prostate, 2.71 µM and 16.2 µM; in the experiment on NCI/ADR-RES ovarian, 23.1 µM and 14.2 µM.
For `CC(C)(O)CC(=O)NCCn1ccc2ncnc(Nc3ccc(Oc4cccc(C(F)(F)F)c4)c(Cl)c3)c21`, the GI50 was 2.98 µM with MCF7 breast; 5.52 µM in the experiment on BT-549 breast; 3.98 µM in the experiment with MDA-MB-435; 4.6 µM in the experiment on HS 578T breast; 3.46 µM in the experiment with PC-3 prostate; 2.58 µM in the experiment on NCI/ADR-RES ovarian. In addition, the TGI in the experiment on MCF7 breast, in the experiment on BT-549 breast, in the experiment with MDA-MB-435, with HS 578T breast, with PC-3 prostate and in the experiment on NCI/ADR-RES ovarian was > 10 µM each time.
Regarding `O=C1c2c(O)cccc2C(C2OC(CO)C(O)C(O)C2O)c2cc(CO)cc(O)c21` (centres undefined), the TGI with MCF7 breast, with BT-549 breast, with MDA-MB-435, with HS 578T breast, in the experiment with PC-3 prostate and in the experiment with NCI/ADR-RES ovarian was > 100 µM throughout.
On to `NC(=O)c1c(NC(=O)c2ccc3c(c2)OCO3)sc2c1CCC(=O)C2`, for which the GI50 in the experiment on MCF7 breast was 1.96 µM; in the experiment on BT-549 breast, 0.373 µM; with MDA-MB-435, 3.16 µM; in the experiment on PC-3 prostate, 0.313 µM; in the experiment with NCI/ADR-RES ovarian, 2.2 µM. Besides, the TGI with MCF7 breast was > 100 µM; with BT-549 breast, 5.57 µM; in the experiment with MDA-MB-435 it was > 100 µM; with PC-3 prostate it was > 100 µM; in the experiment on NCI/ADR-RES ovarian, > 100 µM.
For the compound `COc1ccc(OC)c(-c2c(C#N)c(N)nc(N3CCOCC3)c2C#N)c1`, the GI50 with MCF7 breast is > 100 µM; with BT-549 breast, > 100 µM; in the experiment with MDA-MB-435 it was > 100 µM; in the experiment with HS 578T breast, 87.4 µM; in the experiment with PC-3 prostate, 95.4 µM; in the experiment with NCI/ADR-RES ovarian, > 100 µM. Further, the TGI in the experiment on MCF7 breast, with BT-549 breast, in the experiment with MDA-MB-435, in the experiment on HS 578T breast, with PC-3 prostate and in the experiment on NCI/ADR-RES ovarian was > 100 µM throughout.
Consider `CN(C)c1ccc2c(c1)OC(N)=C(C#N)C2c1ccc2c(c1)CCO2` (centres undefined), for which the GI50 with MCF7 breast is < 0.0211 µM; in the experiment on BT-549 breast it was 0.0385 µM; with MDA-MB-435, < 0.0156 µM; with HS 578T breast it was 0.235 µM; in the experiment with PC-3 prostate, 0.0664 µM; in the experiment on NCI/ADR-RES ovarian, < 0.0279 µM. The TGI with MCF7 breast is 32.3 µM; in the experiment on BT-549 breast, 12.4 µM; with MDA-MB-435, 0.095 µM; in the experiment with HS 578T breast, > 100 µM; in the experiment on PC-3 prostate, > 100 µM; in the experiment on NCI/ADR-RES ovarian it was > 22.1 µM.
For `CCCCN(CCCC)c1ccc(C(=N)c2ccc(N(CCCC)CCCC)cc2)cc1`, the GI50 is 0.389 µM with MCF7 breast; 1.42 µM in the experiment with BT-549 breast; 0.642 µM in the experiment with MDA-MB-435; 0.539 µM in the experiment on HS 578T breast; 0.296 µM in the experiment with PC-3 prostate; 0.479 µM in the experiment on NCI/ADR-RES ovarian. Moreover, the TGI in the experiment on MCF7 breast came to 1.44 µM; in the experiment with BT-549 breast it was 2.89 µM; with MDA-MB-435, 2.21 µM; in the experiment on HS 578T breast, 1.58 µM; in the experiment with PC-3 prostate, 1.03 µM; with NCI/ADR-RES ovarian it was 1.67 µM.
As for `CN1CC[C@@H](c2c(O)cc(O)c3c(=O)cc(-c4ccccc4Cl)oc23)[C@@H]1CO`, the GI50 in the experiment with MCF7 breast is 0.241 µM; in the experiment on BT-549 breast it was 0.38 µM; in the experiment on MDA-MB-435, 0.271 µM; with HS 578T breast, 0.233 µM; with PC-3 prostate, 0.314 µM; in the experiment on NCI/ADR-RES ovarian, 1.57 µM. Moreover, the TGI was > 10 µM in the experiment with MCF7 breast; 2.52 µM with BT-549 breast; 1.1 µM in the experiment with MDA-MB-435; 1 µM in the experiment with HS 578T breast; 3.64 µM in the experiment on PC-3 prostate; > 10 µM in the experiment on NCI/ADR-RES ovarian.
Turning to `C/C=C(/COC(C)=O)C(=O)OC1C=C(C=O)C(C)(C)C=C1C` (centres undefined), the TGI with MCF7 breast, with BT-549 breast, in the experiment on MDA-MB-435, in the experiment on HS 578T breast, in the experiment with PC-3 prostate and in the experiment with NCI/ADR-RES ovarian was > 100 µM in each case.
With `COc1ccc(C(=O)c2cc3c(N)c(C(=O)Nc4cccc5ccccc45)sc3nc2C)cc1`, the GI50 was 0.191 µM with MCF7 breast; 0.379 µM with BT-549 breast; 0.198 µM with HS 578T breast; 0.212 µM with PC-3 prostate; 0.181 µM with NCI/ADR-RES ovarian. Besides, the TGI with MCF7 breast, with BT-549 breast, in the experiment with HS 578T breast, in the experiment with PC-3 prostate and in the experiment on NCI/ADR-RES ovarian was > 50 µM each time.
Consider `COc1cccc(-n2ncc3c(N/N=C/c4ccncc4)ncnc32)c1`, for which the GI50 in the experiment on MCF7 breast was > 12.2 µM; with BT-549 breast it was > 25 µM; in the experiment on MDA-MB-435, 1.46 µM; with HS 578T breast, 0.322 µM; in the experiment with PC-3 prostate, > 17.1 µM; with NCI/ADR-RES ovarian, > 25 µM. Also, the TGI with MCF7 breast is > 25 µM; in the experiment with BT-549 breast it was > 25 µM; in the experiment on MDA-MB-435, > 25 µM; in the experiment with HS 578T breast, > 6.41 µM; in the experiment with PC-3 prostate, > 25 µM; in the experiment with NCI/ADR-RES ovarian, > 25 µM.
As for `O=C(COc1ccc(/C=C2\Oc3ccccc3C2=O)cc1)Nc1nc2c(s1)CCCC2`, the GI50 was 15.8 µM in the experiment with MCF7 breast; 4.44 µM in the experiment on BT-549 breast; 3.98 µM in the experiment with MDA-MB-435; 16.8 µM in the experiment with PC-3 prostate; 2.19 µM in the experiment on NCI/ADR-RES ovarian. Besides, the TGI was > 100 µM with MCF7 breast; > 49.8 µM in the experiment with BT-549 breast; > 100 µM in the experiment on MDA-MB-435; 7.78 µM in the experiment on HS 578T breast; > 100 µM in the experiment with PC-3 prostate; > 59.1 µM with NCI/ADR-RES ovarian.
With `Cn1cc(C2=C(c3cccc(OCC(O)CO)c3)C(=O)NC2=O)c2ccccc21` (centres undefined), the GI50 with MCF7 breast is > 25 µM; with BT-549 breast it was > 25 µM; in the experiment on MDA-MB-435, > 19.1 µM; with HS 578T breast, > 15.2 µM; with PC-3 prostate, > 25 µM; with NCI/ADR-RES ovarian it was > 25 µM. In addition, the TGI with MCF7 breast, in the experiment on BT-549 breast, with MDA-MB-435, in the experiment on HS 578T breast, with PC-3 prostate and in the experiment on NCI/ADR-RES ovarian was > 25 µM each time.
